Data: paper PMC9572541, “Design, Synthesis and Biological Evaluation of Novel and Potent Protein Arginine Methyltransferases 5 Inhibitors for Cancer Therapy” (Molecules, 2022)
“Also recorded” adds a separate entry of the source. Read-outs that look alike come from different tables or passages of the source.

Experiments:
[1] = Pharmacokinetic study in ICR mice; format: in vivo, mouse; conditions: for MRT last: read-out: MRT0-t; for MRT inf: read-out: MRT0-∞
Procedure: The pharmacokinetic properties were evaluated by PRECEDO. China. SPF ICR mice (18–20 g, 6–8 weeks, n = 3 per group) were used to carried out pharmacokinetics determinations. […] Colleting samples at different times after treatment. Plasma was obtained from the blood samples by centrifugation (6000 rpm for 3 min at 2–8 °C) and stored at −20 °C. The LC-MS/MS (Shimadzu, API 4000) method was used to determine the concentration of each animal at each time point.

PRMT5 = molecular target: T1, PRMT5 (Homo sapiens, UniProt O14744); experiment: PRMT5 enzymatic activity inhibition assay (radioactive methylation, 3H-SAM to H4R3 peptide); format: biochemical
T1 construct: The final concentrations of PRMT5 enzyme: 2.5 nm/L
Procedure: The PRMT5 enzymatic activity assay was conducted by Chempartner Life science. The final concentrations of PRMT5 enzyme: 2.5 nm/L; ^3H-SAM: 0.3 μM/L; histone peptide (H4R3S1ac): 0.3 μM/L. The protocol of radioactive methylation assay was as follows: (1) Prepare 1× assay buffer (modified Tris Buffer). (2) Transfer compounds to assay plate using Echo in 100% DMSO. DMSO’s final fraction is 1%. (3) Prepare enzyme and ^3H-SAM Mix solution in 1× assay buffer. (4) Prepare substrate (peptide sequence Ac-[…]-K(Biotin)) solution in 1× assay buffer. (5) Transfer 15 μL of enzyme and ^3H-SAM solution to assay plate. (6) Incubate at room temperature for 60 min. (7) Add 10 μL of substrate solution to each well to start the reaction, and for low control transfer 10 μL of 1× assay buffer. (8) Incubate at room temperature for 120 min. (9) Add cold SAM in 1× assay buffer to make the stop mix. (10) Stop reaction with addition of 5 µL per well of stop solution. (11) Transfer 25 µL of volume per well to Flash plate from assay plate. (12) Incubate for 1 h minimum at room temperature.
(13) Read plate on Micro beta. (14) Data process—get the data in Excel to obtain inhibition values using Equation (1).Inhibitory rate% = (Max-Signal)/ (Max-Min) × 100(1)
Fit the data in XL-Fit to obtain IC50 values using Equation (2): Y = Bottom + (Top-Bottom)/(1 + (IC50/X) […]) Y is% inhibition and X is compound concentration(2)

AML-12 hepatocytes = experiment: Toxicity on normal AML-12 hepatocytes; format: cell-based
From the text: MV-4-11 and MDA-MB-468 cell lines were used to evaluate the anti-proliferative activities of the selected target compounds (CellTiter-Glo assay), and AML-12 hepatocytes were selected to evaluate the toxicity of the compounds.
MV-4-11 and MDA-MB-468 cell line were derived from Cell Resources Center of Shanghai Academy of life sciences (Shanghai, China). AML-12 cell line was brough from Nanjing Lixing Biotechnology Co. Ltd. (Nanjing, China). MDA-MB-468 cell line was maintained in Dulbecco’s Modified Eagle Medium (DMEM, KeyGEN Bio) that contained 10% FBS (Biochanel, China), MV-4-11 cell line was maintained in Iscove’s Modified Dulbecco Medium containing; 10% FBS (Biochannel, China), AML-12 cell line was maintained in DMEM/F-12 (1:1) (KeyGEN, China; 1% ITS Liquid Media Supplement (Sigma, America), dexamethasone 40 ng/mL (Sigma, USA) and 10% FBS (Biochannel, China). All cells were grown in a humidified incubator containing 5% carbon dioxide at 37 ℃. All compounds were dispersed in dimethyl sulfoxide (Sigma), the concentration of the reserve solution was 10 mmol/L and the solution was stored in a refrigerator at −20 ℃. SDMA (# 13222S), β- Tubulin (#2146S) and horseradish peroxidase (HRP)-linked secondary antibodies anti-rabbit or anti-mouse IgG were purchased from Cell Signaling Technology (CST), and the anti-PRMT5 (ab109451) antibody was purchased from ABCAM. […]

[2] = ICR, mouse, plasma, iv, 2 mg/kg, male mice, Table S1, mean ± SD
[3] = ICR, mouse, plasma, oral gavage, 10 mg/kg, male mice, Table S2, mean
[4] = male, ICR, mouse, plasma, iv, 2 mg/kg, ICR mouse, Table 4
[5] = male, ICR, mouse, plasma, iv, 2 mg/kg, male mice, Table S1, mean ± SD
[6] = male, ICR, mouse, plasma, po, 10 mg/kg, ICR mouse, Table 4
[7] = male, ICR, mouse, plasma, po, 10 mg/kg, oral gavage, male mice, Table S2, mean

T1 sequence (O14744 whole entry): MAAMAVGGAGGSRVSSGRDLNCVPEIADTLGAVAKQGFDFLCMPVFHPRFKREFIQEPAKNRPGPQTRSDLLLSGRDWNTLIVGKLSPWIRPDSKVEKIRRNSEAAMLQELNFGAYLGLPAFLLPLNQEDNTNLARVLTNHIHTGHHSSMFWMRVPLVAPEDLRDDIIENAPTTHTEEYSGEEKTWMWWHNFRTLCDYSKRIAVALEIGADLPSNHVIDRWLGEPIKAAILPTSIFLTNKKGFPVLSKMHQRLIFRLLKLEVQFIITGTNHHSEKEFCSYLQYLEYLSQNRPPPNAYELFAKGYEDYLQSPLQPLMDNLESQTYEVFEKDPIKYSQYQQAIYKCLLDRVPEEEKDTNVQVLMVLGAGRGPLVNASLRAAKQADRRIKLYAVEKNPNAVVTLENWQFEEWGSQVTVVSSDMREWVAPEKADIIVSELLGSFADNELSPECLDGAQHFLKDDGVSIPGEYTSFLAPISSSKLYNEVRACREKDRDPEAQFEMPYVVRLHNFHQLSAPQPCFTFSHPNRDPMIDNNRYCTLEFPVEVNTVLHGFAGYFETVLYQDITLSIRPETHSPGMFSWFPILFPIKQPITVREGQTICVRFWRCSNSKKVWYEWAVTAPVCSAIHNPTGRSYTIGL
T1 sequence (Q9BQA1 whole entry partner): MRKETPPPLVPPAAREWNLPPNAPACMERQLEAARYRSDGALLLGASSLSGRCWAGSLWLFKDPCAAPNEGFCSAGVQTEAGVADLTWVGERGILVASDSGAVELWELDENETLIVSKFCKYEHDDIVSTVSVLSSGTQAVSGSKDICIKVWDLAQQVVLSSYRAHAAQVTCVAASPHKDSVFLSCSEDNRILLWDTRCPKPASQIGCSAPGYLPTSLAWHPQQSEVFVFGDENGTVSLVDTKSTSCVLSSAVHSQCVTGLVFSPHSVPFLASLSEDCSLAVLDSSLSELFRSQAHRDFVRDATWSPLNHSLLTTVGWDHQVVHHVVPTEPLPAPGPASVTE

`O=C(NC[C@H](O)CN1CCc2ccccc2C1)c1ccc2c(c1)c1c(n2CC2COC2)CCCC1` [Compound 20, (S)-N-(3-(3,4-dihydroisoquinolin-2(1H)-yl)-2-hydroxypropyl)-9-(oxetan-3-ylmethyl)-2,3,4,9-tetrahydro-1H-carbazole-6-carboxamide] showed an AUC(0-t) [1, 2] of 1030 ± 68.5 ng·h/mL, a C0 [1, 2] of 1940 ± 330 ng/mL and a Tmax [1, 2] of 4.8 min. For the same compound, the half-life [1, 2] was 29.4 ± 13.8 min, the MRT last [1, 2] was 26.4 ± 3 min and the MRT inf [1, 2] was 27 ± 3 min. For the same compound, the AUC(0-t) [1, 3] was 728 ng·h/mL, the Tmax [1, 3] was 15 min and the bioavailability [1, 3] was 14.5%. For the same compound, the half-life [1, 3] was 364 min, the MRT last [1, 3] was 73.2 min and the MRT inf [1, 3] was 115 min. For the same compound, the T1/2 ([1]; iv, 2 mg/kg, ICR mouse, Table 4) was 29.4 min, the AUC(0-inf) [1, 4] was 1030 ng·h/mL and the Cmax [1, 4] was 1690 ng/mL. It also gave a clearance [1, 4] of 32.4 mL/min/kg, a Vd ([1]; male, ICR, mouse, plasma, iv, 2 mg/kg, iv, 2 mg/kg, ICR mouse, Table 4, read-out: Vss) of 1.35 L/kg and a Vd ([1]; male, ICR, mouse, plasma, iv, 2 mg/kg, iv, 2 mg/kg, male mice, Table S1, mean ± SD, read-out: Vz) of 1.35 ± 0.556 L/kg. For the same compound, the AUC(0-inf) [1, 5] was 1030 ± 64.8 ng·h/mL, the Cmax [1, 5] was 1690 ± 133 ng/mL and the clearance [1, 5] was 32.4 mL/min/kg. For the same compound, the AUC(0-inf) [1, 6] was 747 ng·h/mL, the Cmax [1, 6] was 1270 ng/mL and the AUC(0-inf) [1, 7] was 747 ng·h/mL. The Cmax [1, 7] was 1270 ng/mL, the bioavailability ([1]; male, plasma, po 10 mg/kg vs iv 2 mg/kg, ICR mouse, Table 4) was 14.5% and the T1/2 ([1]; po, 10 mg/kg, ICR mouse, Table 4) was 364 min. For the same compound, the IC50 (PRMT5) was 4.2 ± 1.3 nM, the inhibition at 0.1 µM (PRMT5; 100 nM compound, read-out: Inhibition Rate% @100 nM) was 83 ± 12% and the “toxicity to normal AML-12 hepatocytes (in words)” value (AML-12 hepatocytes) was “almost no toxicity; also recorded: no significant cytotoxicity”. The inhibition at 10 µM (AML-12 hepatocytes; Mus musculus, AML12, read-out: AML-12 Inhibition Rate% @10 μM) was -30.5 ± 9.4% and the inhibition at 20 µM (AML-12 hepatocytes; Mus musculus, AML12, read-out: AML-12 Inhibition Rate% @20 μM) was -27 ± 1.2%.
